Assay results taken from patent publication US20110245091A1, “REACTION PROGRESS ASSAY FOR SCREENING BIOLOGICAL ACTIVITY OF ENZYMES” (priority 2010, published 2011).

Target: T1, HIV-I reverse transcriptase (Human immunodeficiency virus type 1 group M subtype B, UniProt P04585)
T1 construct: HIV-I RNA-dependent DNA polymerase (reverse transcriptase); purchased Worthington LS05006
Assay: Reaction progress luminescence assay of cDNA synthesis by HIV-I reverse transcriptase (luciferase detection of dATP)
Type: biochemical
Experimental: The reaction was set by adding: 16 µL of RNAse-free water; 2 µL of 10× reaction buffer (400 mM Tris-HCl, 60 mM MgCl2, 100 mM Dithiothreitol, 20 mM spermidine, pH 7.9 @ 25° C.); 2 µL of template, polyuridylic acid at 1 µg/µL (Midland Certified Reagent Company, Cat. No. P-3004); 2 µL of primer poly(A)18 at 0.5 µg/µL (Polydeoxyadenylate, 18 base long purchased from Integrated DNA technologies); 20 µM of dATP; 3 U of HIV-I (Worthington, Cat. No. LS05006); 3 µL of ATP detection solution prepared by diluting luciferase (EC 1.13.12.7) at 3 µg/mL in 0.1M Tris-acetate pH 7.7, 2 mM EDTA, 10 mM magnesium acetate, 0.1% BSA, 1 mM dithiothreitol, 0.4 mg/mL PVP, and 0.4 mM D-luciferin. A 5 µL of reaction solution has been added to a well of 384-well plate and the luminescence intensity vs. time was recorded on Orion II microplate luminometer at 25° C. (Berthold detection Systems (Pforzheim, Germany)). A first derivative, ∂l(t)l∂t, for the luminescence intensity has been calculated. The derivative was calculated by selecting a group of three or more consecutive measurements of the luminescence intensity and calculating by a least square method the “instant” slope of the luminescent intensity which said slope represents the first derivative of the luminescence at the time when the respective measurements were made. […]

What does the source list for `C[C@H](Cn1cnc2c(N)ncnc21)OCP(=O)(O)O` [MT-4S]?
mechanism of inhibition (crossing of trend lines) (MT-4S at 1.2 nM and 3.7 nM): non-competitive; Ki (inhibitor at 0, 1.2 and 3.7 nM, 20 μM dATP, 25° C., read-out: inhibition constant Ki): 0.9 ± 0.15 nM
